In patent US20260191853A1, “METHOD OF TREATING DRUG-INDUCED BRADYARRHYTHMIA” (OSAKA UNIVERSITY, priority 2022, published 2026):
“Also recorded” adds a separate entry of the source.

Columns and labels:
Hartley guinea pigs = assay: Termination effect on siponimod-induced bradyarrhythmia in isoflurane-anesthetized guinea pig model; format: in vivo
From the text: Hartley guinea pigs (7 to 10 weeks old, male, available from Japan SLC, Inc.) were subjected to anesthetic induction by inhalation of isoflurane (available from Pfizer Japan Inc.), and each animal was held on an operating table having a heater function. The trachea was incised, and a tracheal cannula (KN-375, available from Natsume Seisakusho Co., Ltd.) was inserted. The tracheal cannula was connected to a ventilator (SN-480-7, available from Shinano Seisakusho Co., Ltd.), and artificial respiration was controlled by supplying 100% oxygen at a volume of 10 mL and a ventilation rate of 60 times/minute. Isoflurane (available from Pfizer Japan Inc.) anesthesia (about 1 to 4%, carrier gas: 100% oxygen) was used for maintenance of anesthesia. A catheter (BD intramedic polyethylene tubing PE50, available from Becton, Dickinson and Company) charged with 50 units/mL heparin (available from AY PHARMACEUTICALS CO., LTD.) was inserted into each of the carotid artery and the jugular vein and placed in the blood vessel. Systemic blood pressure was measured with a high-sensitivity DC amplifier (AD-611J, available from NIHON KOHDEN CORPORATION) via the catheter placed in the carotid artery. Electrodes were attached to the body surface, and a body surface electrocardiogram was measured with a high-sensitivity amplifier (AB-611J, available from NIHON KOHDEN CORPORATION). Blood pressure and electrocardiogram data were acquired and analyzed with PowerLab/Labchart system (available from ADInstruments). After stabilization of each parameter, siponimod (available from Nissan Chemical Corporation) was continuously administered intravenously at 0.01 mg/kg for 10 minutes via the catheter placed in the jugular vein, followed by observation of the presence or absence of atrioventricular block. The solvent used was a solution prepared by mixing of Polyethylene Glycol 400 (available from KANTO CHEMICAL CO., INC.) and dimethyl sulfoxide (available from FUJIFILM Wako Pure Chemical Corporation) at 9: 1 (volume ratio). […] Data were recorded and blood was collected 10, 20, and 30 minutes after initiation of administration of compound (I) dihydrochloride and at the time of termination of atrioventricular block. […] Data were analyzed for the presence or absence of the termination, the time required for the termination, and the plasma concentration of compound (I) at the time of termination. […] After thawing of the plasma, plasma drug concentrations were measured using LC/MS/MS after deproteinization with acetonitrile. […]

beagle dog = assay: Therapeutic effect on verapamil-induced bradycardia in conscious beagle dog; format: in vivo; conditions: FIG. 10
Description: A peripheral venous path was secured with an 18 G needle in the right forelimb of a beagle dog (body weight: about 10 kg, female, available from Oriental Yeast Co., Ltd.), and then held on an operating table. Heart rate was monitored with an electrocardiographic monitor worn on the animal. A manchette was worn on the left forelimb, and blood pressure was measured with an Omron automatic electronic sphygmomanometer. The left ventricular function was measured by the M-mode method using the echocardiographic left parasternal short-axis two-chamber view. After stabilization of the heart rate, verapamil (intravenous injection of Vasolan, available from Eisai Co., Ltd.) was administered by continuous intravenous injection at a dose of 0.8 mg/kg/hour with a syringe pump. About 30 minutes after the initiation of administration, the dose was increased to 2.4 mg/kg/hour, and continuous infusion was continued. Since 2:1 atrioventricular block was continuously determined 17 minutes after an increase in the dose, the administration of verapamil was discontinued. Subsequently, saline and compound (I) dihydrochloride (0.01 mg/kg, 0.1 mg/kg, 1 mg/kg) were administered by bolus intravenous injection at 10-minute intervals. About 10 minutes after each administration, electrocardiogram, heart rate, blood pressure, and left ventricular function were measured and evaluated in a stable state. […]

Compound: Cc1cc(CO)nc2cc3c(cc12)OC(C)(C)[C@H](O)[C@H]3NCCc1ccccc1 [Compound (I), (3R,4S)-7-Hydroxymethyl-2,2,9-trimethyl-4-(phenethylamino)-3,4-dihydro-2H-pyrano[2,3-g]quinoline-3-ol]
- siponimod-induced bradyarrhythmia (atrioventricular block) termination (Hartley guinea pigs; compound (I) dihydrochloride 0.1 mg/kg continuous i.v.): completely terminated
- Compound (I) concentration at the time of termination (Hartley guinea pigs; plasma, siponimod-induced block, 0.1 mg/kg continuous i.v. for 30 minutes, mean±standard error): 22.7 ± 3.1 ng/mL
- Number of cases where atrioventricular block was terminated (Hartley guinea pigs; siponimod-induced block, compound (I) dihydrochloride 0.1 mg/kg continuous i.v. for 30 minutes): 5/5
- Time required for the termination of atrioventricular block (Hartley guinea pigs; siponimod-induced block, compound (I) dihydrochloride 0.1 mg/kg continuous i.v. for 30 minutes, mean±standard error): 638 ± 75 s
- verapamil-induced bradyarrhythmia (2:1 atrioventricular block) (beagle dog; 0.1 mg/kg bolus i.v.): exhibited a termination effect
- verapamil-induced bradyarrhythmia (2:1 atrioventricular block) (beagle dog; compound (I) dihydrochloride 0.01, 0.1, 1 mg/kg bolus i.v. after verapamil infusion up to 2.4 mg/kg/hour): improved bradyarrhythmia; also recorded: recovery to 1:1 atrioventricular conduction
